# Test results as given in patent US20230321064A1, “Products for Treating the JNCL Disease” (Beyond Batten Disease Foundation, priority 2020, published 2023).
# “Also recorded” adds a separate entry of the source.
# Key:
# Assay type in all cases: in vivo, mouse
# Cln3^Δex7-8 mice [1] = assay: Neuronal cell death, cleaved caspase-3 immunohistology in brain sections
# Experimental: (§1) Cln3^Δex7-8 mice were obtained from the Jackson Laboratory. Control (C57BL/6J) and Cln3^Δex7-8 mice were housed 3-4 per cage in a room with a 12-h light/12-h dark cycle. Food and water were provided ad libitum. All mice used in this study were analyzed at 8 and 12 months of age and were littermates produced by crossing heterozygous Cln3^Δex7-8 mice. Only males were used for this analysis. Investigators were blinded when analyzing the data, and no randomization was necessary.
# (§2) For oral administration, Trehalose was dissolved in drinking water to a final concentration of 2% and changed twice a week. Trehalose-containing water was given to Cln3^Δex7-8 mice and WT mice by spontaneous oral administration starting at 21 days of age and continuing until the day the mice were sacrificed for neuropathology studies.
# (§3) Miglustat was administered in mixture with the food pellet starting at 21 days of age and continuing until the day the mice were sacrificed for neuropathology studies. Miglustat food was prepared by TestDiet using the 5V5R rodent diet (LabDiet). Two concentrations were used: 1.2 g/Kg chow (indicated as “low concentration”) and 7.2 g/Kg chow (indicated as “high concentration”) and two separate groups of Cln3^Δex7-8 mice were fed with either diet. One additional group of Cln3^Δex7-8 l mice was fed with a combination of the low-concentration Miglustat food and 2% Trehalose water.
# (§4) Twelve-month-old homozygous Cln3^Δex7-8 mice and age-matched controls (WT mice) were anaesthetized with isoflurane and transcardially perfused with PBS followed by 4% buffered paraformaldehyde in 0.1 M sodium phosphate buffer, pH 7.4. Brains were subsequently removed and postfixed overnight. Before sectioning, the brains were cryoprotected in a solution containing 30% sucrose in Tris-buffered saline (TBS: 50 mM Tris, pH 7.6). Consecutive 40 μm floating coronal sections were collected in 96-well plates. Series of sections were then stained with primary antisera against CD68 (AbD
# (§5) Serotec, Cat. No. MCA1957), GFAP (DAKO, Cat. No. Z0334), Subunit C of mitochondrial ATP synthase (SCMAS; Abcam, Cat. No. ab181243), or cleaved caspase 3 (Asp175) (Cell Signaling, Cat. No. 9661S) followed by either rabbit anti-rat (VectorLab) or swine anti-rabbit (DAKO) secondary antibodies, and immunoreactivity detected with Vectastain ABC (avidin-biotin) kit (Vector) and diaminobenzidine as a chromogen.
# (§6) Non-overlapping images were captured, on three consecutive sections, through each region of interest. All RGB images were captured via a live video camera (JVC, 3CCD, KY-F55B), mounted onto a Zeiss Axioplan microscope using a x 40 objective and saved as JPEGs. All parameters including lamp intensity, video camera set-up and calibration were maintained constant throughout image capturing. For quantification of storage and inflammation, images were analyzed using ImageJ analysis software (NIH), using an appropriate threshold that selected the foreground immunoreactivity above background. This threshold was then applied as a constant to all subsequent images analyzed per batch of animals and reagent used to determine the specific area of immunoreactivity for each antigen in each region. Data were plotted graphically as the mean percentage area of immunoreactivity per field ±s.e.m. for each region. For quantification of cell death, images were analyzed manually and scored for the presence of apoptotic nuclei. Data were plotted graphically as the mean number of apoptotic cells per field ±s.e.m. for each region. […]
# Cln3^Δex7-8 mice [2] = assay: Astrocytosis, GFAP immunohistochemistry in brain sections
# Experimental: as §1, §2, §3, §4, §5
# Non-overlapping images were captured, on three consecutive sections, through each region of interest. All RGB images were captured via a live video camera (JVC, 3CCD, KY-F55B), mounted onto a Zeiss Axioplan microscope using a x 40 objective and saved as JPEGs. All parameters including lamp intensity, video camera set-up and calibration were maintained constant throughout image capturing. For quantification of storage and inflammation, images were analyzed using ImageJ analysis software (NIH), using an appropriate threshold that selected the foreground immunoreactivity above background. This threshold was then applied as a constant to all subsequent images analyzed per batch of animals and reagent used to determine the specific area of immunoreactivity for each antigen in each region. Data were plotted graphically as the mean percentage area of immunoreactivity per field ±s.e.m. for each region. For quantification of cell death, images were analyzed manually and scored for the presence of apoptotic nuclei. Data were plotted graphically as the mean number of apoptotic cells per field ±s.e.m. for each region. All analyses were performed blind to genotype and treatment.
# […] was also quantified by performing immunohistochemistry staining of brain sections of all test and control mice using anti-GFAP antibodies.
# Cln3^Δex7-8 mice [3] = assay: Microglial activation, CD68 immunohistochemistry in brain sections; conditions: analyzed regions VPM/VPL, DLG, S1BF, V1 (FIG. 2A-D)
# Experimental: as §1, §2, §3, §4, §5
# as §6, with “Data were plotted graphically as the mean percentage area of immunoreactivity per field ±s.e.m. for each region.” left out, “nuclei.” for “nuclei. Data were plotted graphically as the mean number of apoptotic cells per field ±s.e.m. for each region.”
# (S1BF), the primary visual (V1) cortex, and the dorsolateral geniculate (DLG) (Pontikis et al., 2005). To quantify microglial activation, antibodies against the microglial marker CD68 were used. […]
structure (smiles),measurement,setting,value
"OC[C@H]1O[C@H](O[C@H]2O[C@H](CO)[C@@H](O)[C@H](O)[C@H]2O)[C@H](O)[C@@H](O)[C@@H]1O [Trehalose, α-D-glucopyranosyl α-D-glucopyranoside dihydrate]",cell death (cleaved CAS-3) in the VPM/VPL region,"Cln3^Δex7-8 mice [1]; 12 months of age, oral, 2% Trehalose in drinking water, Miglustat in chow (FIG. 1E), dihydrate",partially prevented; also recorded: partially reduced
same,programmed cell death (cleaved caspase-3 reactive cells),"Cln3^Δex7-8 mice [1]; regions analyzed: VPM/VPL, dLG, S1BF, V1 (FIGS. 1A-D), oral treatment",effective in abating programmed cell death
same,astroglial activation (GFAP staining) in the VPM/VPL region,"Cln3^Δex7-8 mice [2]; 12 months of age, oral, Miglustat even at low doses (FIG. 3E)",partially prevented
same,astrocytosis (GFAP immunoreactivity) in the VPM/VPL,Cln3^Δex7-8 mice [2]; FIG. 3A,did not have any observable effects
same,astrocytosis (GFAP immunoreactivity) in the DLG,Cln3^Δex7-8 mice [2]; FIG. 3B,prevented astrocytosis
same,microglial activation (CD68),Cln3^Δex7-8 mice [3],partially mitigated
